Results reported in patent US10214515B2, “Substituted pyrazoles as inhibitors of fibroblast growth factor receptor” (Zhejiang Hisun Pharmaceutical Co., Ltd., priority 2015, dated 2019).
Like-named read-outs stand apart in the source and are kept apart here.

Key:
[1] = Pharmacokinetic tests on mice, intragastric, plasma LC/MS/MS; format: in vivo; conditions: ICR mice, 100 mg/kg
Description: ICR mice were used as the test animals, and the compound of Example 1 was administrated intragastrically to mice to determine the drug concentration in plasma at different points by LC/MS/MS method. The pharmacokinetic properties of the compound of the present invention were studied in mice.
The compound of Example 1 (50.12 mg) was weighed, added with 5.012 mL of 0.5% sodium carboxymethylcellulose (CMC-Na) (0.5% Tween-20, 0.9% BeOH), vortexed for 3 minutes until a homogeneous suspension was formed;
9 healthy adult ICR mice, after an overnight fast, were administrated intragastrically at a dosage of 100 mg/kg, at a volume of […].
Blood samples were taken from orbital vein (0.08 mL) at pre administration and at 15 minutes, 30 minutes, 1 hour, 2 hours, 4 hours, 8 hours, 12 hours, 24 hours post administration. The samples were stored in heparinized test tubes and centrifuged for 10 minutes at 5500r/min, The plasma were stored at −30° C., and the mice were fed after 4 hours of administration.
10 μL of sample was taken, 100 μl of acetonitrile solution of IS (5 ng·mL^−1 verapamil and 50 ng·mL^−1 glibenclamide were contained) was added, the mixture was vortexed for 10 minutes and centrifuged for 18 minutes at 3,700r/min, After that, 40 μL of supernatant was added with 120 μL of water and vortexed for 10 minutes, and an aliquot of 10 μL of the supernatant of the mixture was analyzed in a LC-MS/MS system.
The tested compounds were administrated intragastrically to determine the content of the tested compounds in plasma of mice at different time points by LC-MS/MS method.

[2] = system: human bladder transplanted cell carcinoma cell SW780; assay: cells; conditions: SW780, 72 h, read-out: IC50(nM)/SW780
From the text: For the FGFR3 subtype, the human bladder transplanted cell carcinoma cell SW780 (purchased from the Chinese Academy of Sciences, Shanghai Institute of Life Sciences, Cell Resource Center) was used, and cultivated according to the corresponding conditions.
The experimental assay can be briefly described as follows: the tested compound was first dissolved in DMSO to prepare a stock solution, then it was subjected to gradient dilution with corresponding cell culture medium to prepare a test sample. The final concentration of the compound is in the range of 30 μM to 0.01 nM. The tumor cells in logarithmic growth phase were inoculated into 96-well cell culture plates at appropriate densities, after the cells were incubated overnight under the corresponding conditions, the tested compound samples were added and the cells were cultured for 72 hours. After completion of the culture, a suitable volume of CCK-8 test solution was added to each well and the cells were incubated at 37° C. for 1 to 4 hours. […] The percentage inhibition rate of the compound at each concentration point was calculated by comparing with the absorbance values of the control group, and then non-linear regression analysis was carried out using logarithmic concentration of the compounds-inhibition rates in the GraphPad Prism 5 software, to obtain the IC50 values for inhibiting cell proliferation of the compounds.

[3] = system: small cell lung cancer cells NCI-H1581; assay: Tumor cell proliferation, CCK-8 kit; format: cell-based; conditions: Homo sapiens, 72 hours
[4] = system: small cell lung cancer cells DMS114; assay: Tumor cell proliferation, CCK-8 kit; format: cell-based; conditions: Homo sapiens, DMS-114, 72 hours
[5] = system: human gastric cancer cells SNU-16; assay: Tumor cell proliferation, CCK-8 kit; format: cell-based; conditions: SNU-16 cells, 72 hours
[6] = system: human gastric cancer cells KATOIII; assay: Tumor cell proliferation, CCK-8 kit; format: cell-based; conditions: KATO III, 72 hours
FGFR3 = FGFR3 (Homo sapiens (Human), UniProt P22607); assay: FGFR kinase activity, HTRF KinEASE-TK (TF-FRET); format: biochemical; conditions: recombinant human FGFR3, ATP at Km
FGFR4 = FGFR4 (Homo sapiens (Human), UniProt P22455); conditions: read-out: IC50(nM) FGFR4; recombinant human FGFR4, ATP at Km
Description: This assay used Cisbio's HTRF®KinEASE-TK tyrosine kinase kit (Cat. No. 62TK0PEB), through determining the degree of phosphorylation of the biotinylated polypeptide substrate, the determination was carried out by time-resolved fluorescence energy resonance transfer method (TF-FRET).
For detailed assay, please refer to the kit instructions, the experimental procedure was summarized as follows: the compound of the present invention was first dissolved in DMSO, the solution was subjected to gradient dilution with the buffer solution provided in the kit so that the range of the final concentration of the compound to be tested in the reaction system was 10 μM to 0.1 nM, the final concentration of DMSO was 0.1%. The concentration of the tested adenosine triphosphate (ATP) was the pre-determined Km value corresponding to the ATP of each FGFR subtype. […] Subsequently, an antiphosphorylated tyrosine antibody coupled with a compound containing europium-based element and streptavidin coupled with a modified allophycocyanin XL665 were added to the reaction and the mixture was incubated continuously for 1 hour at room temperature.

[7] = Pharmacokinetic tests on rats, intragastric, plasma LC/MS/MS; format: in vivo; conditions: SD rats; for AUC(0-inf) / half-life / Cmax / MRT: male, rat, plasma, po; for AUC(0-inf): read-out: Curve area AUC0-∞; for half-life: read-out: Half-life period T½ (converted); for Cmax: read-out: Plasma concentration Cmax; for MRT: read-out: Residence time MRT
Description: SD rats were used as the test animals, and the compounds of Examples 12 and 17 were administrated intragastrically to the rats to determine the drug concentration in plasma at different points by LC/MS/MS method. The pharmacokinetic properties of the compounds of the present invention in rats were studied.
The compound of Example 12 (3.5 mg) was weighed, dissolved in 2.2 mL of ethanol, vortexed for 1 minute and sonicated for 1 minute, after that, dissolved in 3.3 mL of PEG400, vortexed for 1 minute and sonicated for 1 minute, and then added with 5.5 mL of deionized water, vortexed for 1 minute. The final concentration of the solution was 0.3 mg/mL, and it was a colorless clear liquid (the pH of the final solution was about 7).
The compound of Example 17 (7.12 mg) was weighed and 7.12 mL of 0.5% sodium carboxymethylcellulose (CMC-Na) (0.5% Tween-20, 0.9% BeOH) was added, vortexed for 3 minutes until a homogeneous suspension was formed;
6 healthy adult SD male rats, after an overnight fast, were administrated intragastrically at the dosage of 3 mg/kg and 5 mg/kg, respectively.
Blood samples were taken from laryngeal vein (0.15 mL), at pre administration and at 15 minutes, 30 minutes, 1 hour, 2 hours, 4 hours, 8 hours, 12 hours, 24 hours, 36 hours and 48 hours post administration, and the samples were stored in heparinized test tubes, and centrifuged for 10 minutes at 5500 r/min. The plasma was stored at −30° C., and the rats were fed 4 hours after administration.
20 μL of sample was taken, 400 μl of acetonitrile solution of IS (5 ng·mL^−1 verapamil and 50 ng·mL^−1 glibenclamide were contained) was added, The mixture was vortexed for 1 minute, and then centrifuged for 8 minutes at 13,000r/min. After that, 70 μL of supernatant was added with 70 μL of water and vortexed for 10 minutes, and an aliquot of 10 μL of the supernatant of the mixture was analyzed in a LC-MS/MS system.
The tested compounds were administrated intragastrically to determine the content of the tested compounds in plasma of rats at different time points by LC-MS/MS method.

Sequence of FGFR4 (P22455 22-802): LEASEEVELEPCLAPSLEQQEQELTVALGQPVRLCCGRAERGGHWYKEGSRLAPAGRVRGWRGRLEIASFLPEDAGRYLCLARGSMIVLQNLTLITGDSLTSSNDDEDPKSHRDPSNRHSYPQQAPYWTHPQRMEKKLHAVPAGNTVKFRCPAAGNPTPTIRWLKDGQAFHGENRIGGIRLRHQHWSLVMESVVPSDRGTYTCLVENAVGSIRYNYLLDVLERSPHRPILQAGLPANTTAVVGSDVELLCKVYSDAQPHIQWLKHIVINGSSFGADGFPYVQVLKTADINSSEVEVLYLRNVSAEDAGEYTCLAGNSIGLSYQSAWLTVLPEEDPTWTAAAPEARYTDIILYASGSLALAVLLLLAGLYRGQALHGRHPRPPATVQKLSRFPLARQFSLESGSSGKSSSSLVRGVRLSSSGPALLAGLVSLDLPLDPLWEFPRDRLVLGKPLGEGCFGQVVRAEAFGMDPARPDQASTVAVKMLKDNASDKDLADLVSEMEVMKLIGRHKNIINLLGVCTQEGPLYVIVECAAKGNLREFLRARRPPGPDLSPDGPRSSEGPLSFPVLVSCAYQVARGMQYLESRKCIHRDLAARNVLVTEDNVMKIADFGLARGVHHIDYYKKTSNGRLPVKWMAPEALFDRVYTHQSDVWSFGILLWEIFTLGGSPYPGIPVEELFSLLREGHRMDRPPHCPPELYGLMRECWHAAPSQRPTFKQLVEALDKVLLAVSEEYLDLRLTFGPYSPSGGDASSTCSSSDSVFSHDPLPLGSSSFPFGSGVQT
Sequence of FGFR3 (P22607 23-806): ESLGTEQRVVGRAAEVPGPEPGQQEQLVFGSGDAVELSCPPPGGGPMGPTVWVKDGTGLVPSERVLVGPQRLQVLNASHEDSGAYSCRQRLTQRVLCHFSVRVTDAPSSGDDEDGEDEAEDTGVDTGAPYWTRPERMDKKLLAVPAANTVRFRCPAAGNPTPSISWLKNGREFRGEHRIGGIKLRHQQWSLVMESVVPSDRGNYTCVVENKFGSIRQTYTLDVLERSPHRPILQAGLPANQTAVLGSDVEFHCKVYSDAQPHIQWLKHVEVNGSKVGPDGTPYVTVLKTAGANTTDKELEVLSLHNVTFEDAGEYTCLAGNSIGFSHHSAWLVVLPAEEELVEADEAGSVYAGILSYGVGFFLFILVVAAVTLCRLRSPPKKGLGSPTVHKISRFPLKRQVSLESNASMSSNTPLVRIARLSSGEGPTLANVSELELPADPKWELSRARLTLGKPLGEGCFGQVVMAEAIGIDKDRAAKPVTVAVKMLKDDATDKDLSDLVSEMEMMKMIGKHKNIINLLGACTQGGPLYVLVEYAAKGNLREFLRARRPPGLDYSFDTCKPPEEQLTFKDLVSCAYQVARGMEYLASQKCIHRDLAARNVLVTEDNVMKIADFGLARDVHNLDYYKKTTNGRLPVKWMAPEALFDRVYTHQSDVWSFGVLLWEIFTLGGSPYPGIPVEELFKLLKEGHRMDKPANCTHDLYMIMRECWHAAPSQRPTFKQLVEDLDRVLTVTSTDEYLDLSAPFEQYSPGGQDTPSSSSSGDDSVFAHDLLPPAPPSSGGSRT

SMILES | IC50 [2] | IC50 [3] | IC50 [4] | IC50 [5] | IC50 [6] | further results
Nc1c(C(=O)c2cc3ccccc3[nH]2)cnn1-c1ccc2[nH]c(C3CC3)nc2c1 [Example 1, (5-amino-1-(2-cyclopropyl-1H-benzo[d]imidazol-5-yl)-1H-pyrazol-4-yl)(1H-indol-2-yl)methanone] | 11 nM | 45 nM | 89 nM | 4 nM | 9 nM | F % (oral availability) [1]: 63%; pharmacokinetic properties (in words) [1]: good pharmacokinetic properties; AUC(0-t) ([1]; mouse, plasma, po, read-out: Curve area AUC0-t): 150000 ng·h/mL; Cmax ([1]; mouse, plasma, po, read-out: Plasma concentration Cmax): 17400 ng/mL
COC(=O)c1nc2cc(-n3ncc(C(=O)c4cc5ccccc5[nH]4)c3N)ccc2[nH]1 [Example 7, Methyl 5-(5-amino-4-(1H-indole-2-carbonyl)-1H-pyrazol-1-yl)-1H-benzo[d]imidazole-2-carboxylate] | – | – | – | – | – | IC50 (FGFR3): > 100 nM; IC50 (FGFR4): > 10000 nM
Nc1c(C(=O)c2cc3cc(F)ccc3[nH]2)cnn1-c1ccc2[nH]c(C3CC3)nc2c1 [Example 11, (5-amino-1-(2-cyclopropyl-1H-benzo[d]imidazol-5-yl)-1H-pyrazol-4-yl)(5-fluoro-1H-indol-2-yl)methanone] | – | 119 nM | – | – | 15 nM | –
Nc1c(C(=O)c2cc3ccc(F)cc3[nH]2)cnn1-c1ccc2[nH]c(C3CC3)nc2c1 [Example 12, (5-Amino-1-(2-cyclopropyl-1H-benzo[d]imidazol-5-yl)-1H-pyrazol-4-yl)(6-fluoro-1H-indol-2-yl)methanone] | – | 78 nM | 150 nM | 5 nM | 1.1 nM | pharmacokinetic properties (in words) [7]: good pharmacokinetic properties; AUC(0-inf) ([7]; 3 mg/kg): 80400 ± 24600 ng·h/mL; half-life ([7]; 3 mg/kg): 5.38 ± 0.05 h; Cmax ([7]; 3 mg/kg): 5230 ± 1510 ng/mL; MRT ([7]; 3 mg/kg): 8.18 ± 0.19 h
CN1CC=C(c2ccc3cc(C(=O)c4cnn(-c5ccc6[nH]c(C7CC7)nc6c5)c4N)[nH]c3c2)CC1 [Example 14, (5-Amino-1-(2-cyclopropyl-1H-benzo[d]imidazol-5-yl)-1H-pyrazol-4-yl)(6-(1-methyl-1,2,3,6-tetrahydropyrid-4-yl)-1H-indol-2-yl)methanone] | – | 20 nM | 43 nM | 5.6 nM | 4.5 nM | –
CCn1cc(-c2ccc3cc(C(=O)c4cnn(-c5ccc6[nH]c(C7CC7)nc6c5)c4N)[nH]c3c2)cn1 [Example 16, (5-Amino-1-(2-cyclopropyl-1H-benzo[d]imidazol-5-yl)-1H-pyrazol-4-yl)(6-(1-ethyl-1H-pyrazol-4-yl)-1H-indol-2-yl)methanone] | 56 nM | 40 nM | 56 nM | – | 11 nM | –
N#Cc1ccc2cc(C(=O)c3cnn(-c4ccc5[nH]c(C6CC6)nc5c4)c3N)[nH]c2c1 [Example 17, 2-(5-Amino-1-(2-cyclopropyl-1H-benzo[d]imidazol-5-yl)-1H-pyrazole-4-carbonyl)-1H-indole-6-carbonitrile] | 106 nM | 61 nM | 129 nM | – | 9.8 nM | pharmacokinetic properties (in words) [7]: good pharmacokinetic properties; AUC(0-inf) ([7]; 5 mg/kg): 10300 ± 3490 ng·h/mL; half-life ([7]; 5 mg/kg): 6.6 ± 3.2 h; Cmax ([7]; 5 mg/kg): 1040 ± 271 ng/mL; MRT ([7]; 5 mg/kg): 9.4 ± 5.2 h
